Results published in US12568969B2, “Pyridine compounds for controlling invertebrate pests” (FMC Corporation, priority 2020, dated 2026).

How the values were obtained:
Format in all cases: in vivo
[1] = test system: diamondback moth (Plutella xylostella (L.)); test: Test A: control of diamondback moth on mustard plant, spray; settings: sprayed at 250 ppm; assessed after 6 days
Protocol: (§1) Test compounds were formulated using a solution containing 10% acetone, […] and 300 ppm Activator 909 non-ionic surfactant (Loveland Products, Loveland, Colorado, USA). The formulated compounds were applied in 1 mL of liquid through an atomizer nozzle positioned 1.27 cm (0.5 inches) above the top of each test unit. Test compounds were sprayed at the rates indicated, and each test was replicated three times.
For evaluating control of diamondback moth (Plutella xylostella (L.)) the test unit consisted of a small open container with a 12-14-day-old mustard plant inside. This was pre-infested with ˜50 neonate larvae that were dispensed into the test unit via corn cob grits using an inoculator. The larvae moved onto the test plant after being dispensed into the test unit.
Test compounds were formulated and sprayed at 250 ppm. After spraying of the formulated test compound, each test unit was allowed to dry for 1 hour and then a black, screened cap was placed on top. The test units were held for 6 days in a growth chamber at 25° C. and 70% relative humidity. Plant feeding damage was then visually assessed based on foliage consumed, and larvae were assessed for mortality.

[2] = test system: corn planthopper (Peregrinus maidis (Ashmead)); test: whole plant or invertebrate; settings: Peregrinus maidis, 144 h, 6 days; for mortality at 50 ppm: sprayed at 50 ppm; for mortality at 250 ppm: sprayed at 250 ppm; for mortality at 10 ppm: sprayed at 10 ppm
Protocol: as §1
For evaluating control of corn planthopper (Peregrinus maidis (Ashmead)) through contact and/or systemic means, the test unit consisted of a small open container with a 3-4-day-old corn (maize) plant inside. White sand was added to the top of the soil prior to application of the test compound.
Test compounds were formulated and sprayed at 250 and/or 50 ppm and/or 10 ppm. After spraying of the formulated test compound, the test units were allowed to dry for 1 h before they were post-infested with ˜15-20 nymphs (18-to-21-day-old). A black, screened cap was placed on the top of each test unit, and the test units were held for 6 days in a growth chamber at 22-24° C. and 50-70% relative humidity. Each test unit was then visually assessed for insect mortality.

[3] = test system: green peach aphid (Myzus persicae (Sulzer)); test: Test D: control of green peach aphid on radish plant, spray; settings: Myzus persicae, 144 h, 6 days; for mortality at 50 ppm: sprayed at 50 ppm; for mortality at 250 ppm: sprayed at 250 ppm
Protocol: as §1
For evaluating control of green peach aphid (Myzus persicae (Sulzer)) through contact and/or systemic means, the test unit consisted of a small open container with a 12-15-day-old radish plant inside. This was pre-infested by placing on a leaf of the test plant 30-40 aphids on a piece of leaf excised from a culture plant (cut-leaf method). The aphids moved onto the test plant as the leaf piece desiccated. After pre-infestation, the soil of the test unit was covered with a layer of sand.
[…] After spraying of the formulated test compound, each test unit was allowed to dry for 1 hour and then a black, screened cap was placed on top. The test units were held for 6 days in a growth chamber at 19-21° C. and 50-70% relative humidity. Each test unit was then visually assessed for insect mortality.

[4] = test system: cotton melon aphid (Aphis gossypii (Glover)); test: whole plant or invertebrate; settings: Aphis gossypii, 144 h, 6 days; for mortality at 50 ppm: sprayed at 50 ppm; for mortality at 250 ppm: sprayed at 250 ppm
Protocol: as §1
[…] This was pre-infested with 30-40 insects on a piece of leaf according to the cut-leaf method, and the soil of the test unit was covered with a layer of sand.
Test compounds were formulated and sprayed at 250 and/or 50 ppm. After spraying, the test units were maintained in a growth chamber for 6 days at 19° C. and 70% relative humidity. Each test unit was then visually assessed for insect mortality.

[5] = test system: sweetpotato whitefly (Bemisia tabaci (Gennadius)); test: Test F: control of sweetpotato whitefly on cotton plant, spray; settings: 312 h, 13 days; for mortality at 50 ppm: sprayed at 50 ppm; for mortality at 250 ppm: sprayed at 250 ppm
Protocol: as §1
For evaluating control of the sweetpotato whitefly (Bemisia tabaci (Gennadius)) through contact and/or systemic means, the test unit consisted of a small open container with a 12-14-day-old cotton plant inside. Prior to the spray application, both cotyledons were removed from the plant, leaving one true leaf for the assay. Adult whiteflies were allowed to lay eggs on the plant and then were removed from the test unit. Cotton plants infested with at least 15 eggs were submitted to the test for spraying.
Test compounds were formulated and sprayed at 250 and/or 50 ppm. After spraying, the test units were allowed to dry for 1 hour. The cylinders were then removed, and the units were taken to a growth chamber and held for 13 days at 28° C. and 50-70% relative humidity. Each test unit was then visually assessed for insect mortality.

Row | Structure (SMILES) | control efficacy (40% or less feeding damage and/or 100% mortality) [1] | mortality at 50 ppm [2] [%] | mortality at 250 ppm [2] [%] | mortality at 50 ppm [3] [%] | mortality at 250 ppm [3] [%] | mortality at 10 ppm [2] [%] | mortality at 50 ppm [4] [%] | mortality at 250 ppm [4] [%] | mortality at 50 ppm [5] [%] | mortality at 250 ppm [5] [%]
1 | Fc1cncc(-n2cncn2)c1C(F)c1ccc(C(F)(F)F)cc1 (stereo not drawn) [Compound 18] | very good to excellent levels of control efficacy | ≥ 80 | ≥ 80 | ≥ 80 | ≥ 80 | – | – | – | – | –
2 | COC(c1ccc(SC(F)(F)F)cc1)c1c(Cl)cncc1-n1nccn1 (single isomer, unassigned) [Compound 130] | very good to excellent levels of control efficacy | ≥ 80 | ≥ 80 | ≥ 80 | ≥ 80 | ≥ 80 | ≥ 80 | ≥ 80 | – | –
3 | Fc1cncc(-n2nccn2)c1C(F)c1ccc(C(F)(F)F)cc1 (stereo not drawn) [Compound 20] | very good to excellent levels of control efficacy | ≥ 80 | ≥ 80 | ≥ 80 | ≥ 80 | – | ≥ 80 | ≥ 80 | – | –
4 | Fc1cncc(-c2nnco2)c1C(F)c1ccc(OC(F)(F)F)cc1 (stereo not drawn) [Compound 30] | very good to excellent levels of control efficacy | ≥ 80 | ≥ 80 | – | ≥ 80 | ≥ 80 | – | – | – | –
5 | FC(c1ccc(SC(F)(F)F)cc1)c1c(Cl)cncc1-n1nccn1 (stereo not drawn) [Compound 89] | very good to excellent levels of control efficacy | ≥ 80 | ≥ 80 | ≥ 80 | ≥ 80 | ≥ 80 | ≥ 80 | ≥ 80 | ≥ 70 | ≥ 70
6 | Fc1cncc(-c2cnco2)c1C(F)c1ccc(OC(F)(F)F)cc1 (stereo not drawn) [Compound 34] | very good to excellent levels of control efficacy | ≥ 80 | ≥ 80 | ≥ 80 | ≥ 80 | – | ≥ 80 | ≥ 80 | – | –
7 | N#Cc1cncc(-n2nccn2)c1C(F)c1ccc(OC(F)(F)F)cc1 (stereo not drawn) [Compound 48] | very good to excellent levels of control efficacy | ≥ 80 | – | ≥ 80 | ≥ 80 | ≥ 80 | – | – | – | –
8 | COC(c1ccc(SC(F)(F)F)cc1)c1c(I)cncc1-n1nccn1 (stereo not drawn) [Compound 120] | very good to excellent levels of control efficacy | ≥ 80 | ≥ 80 | – | – | – | – | – | ≥ 70 | ≥ 70
9 | FC(c1ccc(OC(F)(F)F)cc1)c1c(Cl)cncc1-c1ncco1 (stereo not drawn) [Compound 51] | very good to excellent levels of control efficacy | ≥ 80 | – | – | – | ≥ 80 | ≥ 80 | ≥ 80 | – | –
10 | Fc1cncc(-n2nccn2)c1C(F)c1ccc(Br)cc1 (stereo not drawn) [Compound 92] | very good to excellent levels of control efficacy | ≥ 80 | ≥ 80 | – | – | ≥ 80 | ≥ 80 | ≥ 80 | ≥ 70 | ≥ 70
11 | CO[C@H](c1ccc(OC(F)(F)F)cc1)c1c(F)cncc1-n1nccn1 [Compound 125, 3-fluoro-4-[(R)-methoxy-[4-(trifluoromethoxy)phenyl]methyl]-5-(triazol-2 yl)pyridine] | very good to excellent levels of control efficacy | ≥ 80 | ≥ 80 | ≥ 80 | ≥ 80 | ≥ 80 | ≥ 80 | ≥ 80 | ≥ 70 | ≥ 70
12 | Fc1cncc(-c2ccoc2)c1C(F)c1ccc(OC(F)(F)F)cc1 (stereo not drawn) [Compound 23] | very good to excellent levels of control efficacy | ≥ 80 | ≥ 80 | – | ≥ 80 | – | – | – | – | –
13 | Fc1cncc(-c2ccco2)c1C(F)c1ccc(OC(F)(F)F)cc1 (stereo not drawn) [Compound 22] | very good to excellent levels of control efficacy | ≥ 80 | ≥ 80 | – | ≥ 80 | ≥ 80 | ≥ 80 | ≥ 80 | – | –
14 | Fc1cncc(-c2ncco2)c1C(F)c1ccc(SC(F)(F)F)cc1 (stereo not drawn) [Compound 78] | very good to excellent levels of control efficacy | ≥ 80 | ≥ 80 | ≥ 80 | ≥ 80 | ≥ 80 | ≥ 80 | ≥ 80 | ≥ 70 | ≥ 70
15 | COC(c1ccc(SC(F)(F)F)cc1)c1c(F)cncc1-n1nccn1 (stereo not drawn) [Compound 123] | very good to excellent levels of control efficacy | ≥ 80 | ≥ 80 | ≥ 80 | ≥ 80 | ≥ 80 | ≥ 80 | ≥ 80 | ≥ 70 | ≥ 70
16 | COC(c1ccc(SC(F)F)cc1)c1c(F)cncc1-n1nccn1 (stereo not drawn) [Compound 118] | very good to excellent levels of control efficacy | – | – | ≥ 80 | ≥ 80 | – | ≥ 80 | ≥ 80 | ≥ 70 | ≥ 70
17 | COC(c1ccc(SC(F)(F)F)cc1)c1c(Br)cncc1-n1nccn1 (stereo not drawn) [Compound 133] | very good to excellent levels of control efficacy | – | – | – | – | – | ≥ 80 | ≥ 80 | ≥ 70 | ≥ 70
18 | Fc1cncc(-n2nccn2)c1C(F)c1ccc(SC(F)(F)F)cc1 (stereo not drawn) [Compound 3] | very good to excellent levels of control efficacy | ≥ 80 | ≥ 80 | ≥ 80 | ≥ 80 | – | ≥ 80 | ≥ 80 | – | ≥ 70
